In patent publication US8623857B2, “N-phenyl imidazole carboxamide inhibitors of 3-phosphoinositide-dependent protein kinase-1” (Merck Sharp & Dohme Corp., priority 2010, dated 2014):

Tests used:
recombinant human PDK1 = target: T1, recombinant human PDK1 (Homo sapiens, UniProt O15530); assay: PDK1 IMAP fluorescence polarization assay (inhibition of peptide substrate phosphorylation); format: biochemical; conditions: Table 10; compounds 97-132
T1 construct: containing amino acids 51-556 of the human PDK1 enzyme; made in house; host or cells: Sf9 insect cells
T1 sequence (O15530 51-556): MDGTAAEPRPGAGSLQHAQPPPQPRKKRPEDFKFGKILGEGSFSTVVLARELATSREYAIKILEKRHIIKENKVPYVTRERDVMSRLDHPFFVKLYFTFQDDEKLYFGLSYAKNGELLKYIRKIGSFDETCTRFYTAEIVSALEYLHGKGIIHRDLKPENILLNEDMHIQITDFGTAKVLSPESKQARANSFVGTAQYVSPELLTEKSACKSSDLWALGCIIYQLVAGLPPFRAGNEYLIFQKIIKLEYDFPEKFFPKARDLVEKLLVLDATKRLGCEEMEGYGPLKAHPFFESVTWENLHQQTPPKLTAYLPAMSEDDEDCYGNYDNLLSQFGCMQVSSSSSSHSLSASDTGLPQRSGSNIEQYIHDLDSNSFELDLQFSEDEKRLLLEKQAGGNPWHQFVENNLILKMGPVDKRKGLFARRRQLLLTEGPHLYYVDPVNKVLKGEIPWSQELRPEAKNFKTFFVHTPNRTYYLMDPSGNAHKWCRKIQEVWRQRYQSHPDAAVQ

PDK-1 = target: T2, PDK-1 (Homo sapiens, UniProt O15530); conditions: in vitro; cited from earlier work
T2 sequence (O15530 1-556): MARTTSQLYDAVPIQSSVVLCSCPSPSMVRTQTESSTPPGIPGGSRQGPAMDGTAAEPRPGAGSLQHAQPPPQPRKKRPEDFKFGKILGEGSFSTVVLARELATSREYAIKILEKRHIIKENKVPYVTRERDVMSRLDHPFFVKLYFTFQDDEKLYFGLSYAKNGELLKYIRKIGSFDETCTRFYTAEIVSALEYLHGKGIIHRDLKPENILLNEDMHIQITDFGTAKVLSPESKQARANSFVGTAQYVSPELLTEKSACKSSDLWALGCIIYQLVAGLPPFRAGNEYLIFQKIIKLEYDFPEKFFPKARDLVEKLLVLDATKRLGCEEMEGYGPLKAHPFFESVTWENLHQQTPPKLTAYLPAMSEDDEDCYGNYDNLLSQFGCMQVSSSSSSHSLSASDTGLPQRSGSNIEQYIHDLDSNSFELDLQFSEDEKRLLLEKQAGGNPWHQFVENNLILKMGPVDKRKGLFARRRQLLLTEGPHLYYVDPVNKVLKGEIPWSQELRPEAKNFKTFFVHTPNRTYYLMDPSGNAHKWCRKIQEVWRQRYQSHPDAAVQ

## CNc1nc(-c2c[nH]c(C(=O)Nc3ccccc3N3CCNCC3)n2)cc(N2CCOC(C(=O)NC3CCCCC3)C2)n1 (centres unmarked) [Compound 106, N-cyclohexyl-4-(2-(methylamino)-6-(2-(2-(piperazin-1-yl)phenylcarbamoyl)-1H-imidazol-4-yl)pyrimidin-4-yl)morpholine-2-carboxamide]
Recombinant human PDK1
  IC50: 51 to 250 nM

## CNc1nc(-c2c[nH]c(C(=O)Nc3cccc(F)c3N3CCC(CN)CC3)n2)cc(N2C[C@@H](C(=O)NC3CCCCC3)CC[C@H]2C)n1 [Compound 115, (3S,6R)-1-(6-(2-(2-(4-(aminomethyl)piperidin-1-yl)-3-fluorophenylcarbamoyl)-1H-imidazol-4-yl)-2-(methylamino)pyrimidin-4-yl)-N-cyclohexyl-6-methylpiperidine-3-carboxamide]
Recombinant human PDK1
  IC50: 1 to 50 nM

## CNc1nc(-c2c[nH]c(C(=O)Nc3cccc(F)c3N3CCC(CN)CC3)n2)cc(N2C[C@H](C(=O)NC3CCCCC3)CC[C@@H]2C)n1 [Compound 116, (3R,6S)-1-(6-(2-(2-(4-(aminomethyl)piperidin-1-yl)-3-fluorophenylcarbamoyl)-1H-imidazol-4-yl)-2-(methylamino)pyrimidin-4-yl)-N-cyclohexyl-6-methylpiperidine-3-carboxamide]
Recombinant human PDK1
  IC50: 1 to 50 nM

## CNc1nc(-c2c[nH]c(C(=O)Nc3cccc(F)c3N3CCO[C@@H](CN)C3)n2)cc(N2C[C@@H](C(=O)NC3CCCCC3)CC[C@H]2C)n1 [Compound 117, (3S,6R)-1-(6-(2-(2-((S)-2-(aminomethyl)morpholino)-3-fluorophenylcarbamoyl)-1H-imidazol-4-yl)-2-(methylamino)pyrimidin-4-yl)-N-cyclohexyl-6-methylpiperidine-3-carboxamide]
Recombinant human PDK1
  IC50: 1 to 50 nM

## CNc1nc(-c2c[nH]c(C(=O)Nc3cccc(F)c3N3CCC(CN)CC3)n2)cc(N2CCNC[C@H]2C)n1 [Compound 120, (R)—N-(2-(4-(aminomethyl)piperidin-1-yl)-3-fluorophenyl)-4-(2-(methylamino)-6-(2-methylpiperazin-1-yl)pyrimidin-4-yl)-1H-imidazole-2-carboxamide]
Recombinant human PDK1
  IC50: 1 to 50 nM

## CNc1nc(-c2c[nH]c(C(=O)Nc3cccc(F)c3N3CCC(CN)CC3)n2)cc(N2CCOC[C@H]2C)n1 [Compound 121, (R)—N-(2-(4-(aminomethyl)piperidin-1-yl)-3-fluorophenyl)-4-(2-(methylamino)-6-(3-methylmorpholino)pyrimidin-4-yl)-1H-imidazole-2-carboxamide]
Recombinant human PDK1
  IC50: 1 to 50 nM

## CNc1nc(-c2c[nH]c(C(=O)Nc3cccc(F)c3N3CCC(CN)CC3)n2)cc(N2CCO[C@H](CN)C2)n1 [Compound 123, (R)-4-(6-(2-(aminomethyl)morpholino)-2-(methylamino)pyrimidin-4-yl)-N-(2-(4-(aminomethyl)piperidin-1-yl)-3-fluorophenyl)-1H-imidazole-2-carboxamide]
Recombinant human PDK1
  IC50: 1 to 50 nM

## CNc1nc(-c2c[nH]c(C(=O)Nc3cccc(F)c3N3CCC(CN)CC3)n2)cc(N2CCN[C@@H](C)C2)n1 [Compound 124, (S)—N-(2-(4-(aminomethyl)piperidin-1-yl)-3-fluorophenyl)-4-(2-(methylamino)-6-(3-methylpiperazin-1-yl)pyrimidin-4-yl)-1H-imidazole-2-carboxamide]
Recombinant human PDK1
  IC50: 1 to 50 nM

## CNc1nc(-c2c[nH]c(C(=O)Nc3cccc(F)c3N3CCC(CN)CC3)n2)cc(N2CCC(CN)CC2)n1 [Compound 125, 4-(6-(4-(aminomethyl)piperidin-1-yl)-2-(methylamino)pyrimidin-4-yl)-N-(2-(4-(aminomethyl)piperidin-1-yl)-3-fluorophenyl)-1H-imidazole-2-carboxamide]
Recombinant human PDK1
  IC50: 1 to 50 nM

## CNc1nc(-c2c[nH]c(C(=O)Nc3cccc(F)c3N3CCC(CN)CC3)n2)cc(N2CCC[C@@H](N)C2)n1 [Compound 126, (R)—N-(2-(4-(aminomethyl)piperidin-1-yl)-3-fluorophenyl)-4-(6-(3-aminopiperidin-1-yl)-2-(methylamino)pyrimidin-4-yl)-1H-imidazole-2-carboxamide]
Recombinant human PDK1
  IC50: 1 to 50 nM

## CNc1nc(-c2c[nH]c(C(=O)Nc3cccc(F)c3N3CCC(CN)CC3)n2)cc(N2CCC(NC)(C(N)=O)CC2)n1 [Compound 127, 1-(6-(2-(2-(4-(aminomethyl)piperidin-1-yl)-3-fluorophenylcarbamoyl)-1H-imidazol-4-yl)-2-(methylamino)pyrimidin-4-yl)-4-(methylamino)piperidine-4-carboxamide]
Recombinant human PDK1
  IC50: 1 to 50 nM

## CNc1nc(-c2c[nH]c(C(=O)Nc3cccc(F)c3N3CCC(CN)CC3)n2)cc(N2CC[C@@](OC)(C(N)=O)C2)n1 [Compound 128, (S)—N-(2-(4-(aminomethyl)piperidin-1-yl)-3-fluorophenyl)-4-(6-(3-carbamoyl-3-methoxypyrrolidin-1-yl)-2-(methylamino)pyrimidin-4-yl)-1H-imidazole-2-carboxamide]
Recombinant human PDK1
  IC50: 1 to 50 nM

## CNc1nc(-c2c[nH]c(C(=O)Nc3cccc(F)c3N3CCC(CN)CC3)n2)cc(N2CC[C@@](OC)(C(=O)NC3CCCCC3)C2)n1 [Compound 129, (S)—N-(2-(4-(aminomethyl)piperidin-1-yl)-3-fluorophenyl)-4-(6-(3-(cyclohexylcarbamoyl)-3-methoxypyrrolidin-1-yl)-2-(methylamino)pyrimidin-4-yl)-1H-imidazole-2-carboxamide]
Recombinant human PDK1
  IC50: 1 to 50 nM

## CNc1nc(-c2c[nH]c(C(=O)Nc3cccc(F)c3N3CCC(CN)CC3)n2)cc(N2CC[C@@](COC)(C(=O)NCc3ccccc3)C2)n1 [Compound 130, (R)—N-(2-(4-(aminomethyl)piperidin-1-yl)-3-fluorophenyl)-4-(6-(3-(benzylcarbamoyl)-3-(methoxymethyl)pyrrolidin-1-yl)-2-(methylamino)pyrimidin-4-yl)-1H-imidazole-2-carboxamide]
Recombinant human PDK1
  IC50: 1 to 50 nM

## CNc1nc(-c2c[nH]c(C(=O)Nc3cccc(F)c3N3CCC(CN)CC3)n2)cc(N2CC[C@@](COC)(C(=O)NC3CC3)C2)n1 [Compound 131, (R)—N-(2-(4-(aminomethyl)piperidin-1-yl)-3-fluorophenyl)-4-(6-(3-(cyclopropylcarbamoyl)-3-(methoxymethyl)pyrrolidin-1-yl)-2-(methylamino)pyrimidin-4-yl)-1H-imidazole-2-carboxamide]
Recombinant human PDK1
  IC50: 1 to 50 nM

## CNc1nc(-c2c[nH]c(C(=O)Nc3cccc(F)c3N3CCC(CN)CC3)n2)cc(N2CC[C@@](COC)(C(=O)NC3CCCCC3)C2)n1 [Compound 132, (R)—N-(2-(4-(aminomethyl)piperidin-1-yl)-3-fluorophenyl)-4-(6-(3-(cyclohexylcarbamoyl)-3-(methoxymethyl)pyrrolidin-1-yl)-2-(methylamino)pyrimidin-4-yl)-1H-imidazole-2-carboxamide]
Recombinant human PDK1
  IC50: 1 to 50 nM

## PIFtide: "The peptide sequence of PIFtide is RREPRILSEEEQEMFRDFDYIADWC (SEQ ID NO:2)"; "interacts with PDK-1 and is derived from PRK2 kinase" (PIFtide)
PDK-1
  enhance PDK-1 phosphorylation of substrates: approximately 4 fold
